Test results reported in patent US7465469B2, “Microbiocidal formulation comprising essentials oils or their derivatives” (State of Israel, Ministry of Agriculture & Rural …, priority 2001, dated 2008).

Assays:
[1] = system: non-inoculated Washington oranges; assay: Decay percentage of non-inoculated Washington oranges during storage; format: in vivo, Washington navel oranges
Experimental: Non-inoculated Washington navel oranges were divided into […] groups which were treated as follows: (a) no treatment; (b) dipped in 50% Ethanol; (c) dipped in 0.2% Citral in 0.02% L-77 Emulsifier (aqueous emulsion); (d) dipped in 0.2% Citral in 50% Ethanol; and (e) dipped in a 0.2% aqueous Imazalil solution.
Oranges were then stored for four months at 15° C. in 50-75% relative humidity and the percentage of rotten fruit in each group was measured at different time periods after storage.

[2] = system: Penicillium digitatum; assay: Decay of lemons inoculated with Penicillium 10^4 spores/ml and dipped; format: in vivo, Penicillium digitatum on lemons; settings: inoculated lemons dipped a day after inoculation, kept 6 days at 20° C.
Experimental: Lemon fruit flavedo (exocarp) was taken and extracted overnight in dichloromethane, then exposed to sunlight for about 18 hours until the color of the dichloromethane extract turned brown. The flavedo was blended and filtered through a layer of Whatman paper. The extracted solution was evaporated to remove the dichloromethane and the dense liquor was further separated by chromatography with a silica 60 column using dichloromethane as a carrier. Two fractions of dichloromethane, one green and the other colorless, were obtained after chromatography. The crude active extract was isolated by evaporation of the green dichloromethane fraction. […] Effect of the compounds on pathogen development on the fruit was checked daily during storage.
The antifungal activity of the products prepared in the two different routes was checked in the same method. […] Decay was evaluated at specific intervals during a period of 26 days.
Lemons inoculated with Penicillium (10^4 spores/ml) were dipped in an aqueous solution comprising citral, a detergent (Tween 20), other essential oil components as well as a dichloromethane crude extract of lemon flavedo exposed to sunlight. Decay was evaluated at specific intervals during a period of 20 days.
Pure limonene was exposed to sunlight for three hours. […]

[3] = system: Penicillium digitatum; assay: Decay of Penicillium-inoculated grapefruit after 2-minute dip; format: in vivo, Penicillium digitatum on grapefruit; settings: 25% Ethanol dip; three weeks after inoculation
From the text: Unblemished grapefruit were harvested from the orchard and on the same day sorted again in the laboratory to eliminate injured fruit. The grapefruit were washed with tap water and air-dried. Each fruit was then inoculated by piercing its flavedo tissue 1.5 mm deep with a tool incorporating three needles at three different sites. Prior to each piercing, the tool was immersed in a spore suspension of Penicillium digitatum (10^6 spores/ml).

[4] = system: kumquat fruit; assay: Decay of uninoculated kumquat fruit after storage and shelf life simulation; format: in vivo; settings: 11 days at 10° C. and shelf life at 20° C. for 6 days; limonene 5000 μL L^−1 exposed to sunlight for 3 hours in 25% ethanol + 5000 μL L^−1 TWEEN 20
Experimental: Exposure to sunlight or irradiation of the dichloromethane or hexane extract of lemon flavedo should be conducted for 3 to 6 hours. The efficiency of the extract hydroperoxide formulation as a biocidal composition grows with longer periods of exposure of the fruit to the hydroperoxide solution. […] The effect of exposure of limonene to 3 hours of sunlight and its efficiency as preventing decay compared to no treatment (dipping in water) or treatment with an ethanol solution (25%) are summarized in Table 4 in a commercial like experiment with uninoculated fruit.

With `CCO` [Ethanol 25%, Ethanol] the “% of rotten fruit” value ([1]; 0.5 months of storage at 15° C.) was 0%, the “% of rotten fruit” value ([1]; 1 month of storage at 15° C.) was 4% and the “% of rotten fruit” value ([1]; 2 months of storage at 15° C.) was 14%. For the same compound, the “% of rotten fruit” value ([1]; 3 months of storage at 15° C.) was 20%, the “% of rotten fruit” value ([1]; 4 months of storage at 15° C.) was 23% and the “% Decay” value [2] was 30%. For the same compound, the fruit rotten [3] was “more than 50%” and the “Decay of kumquat fruit, End of storage” value [4] was 7.9 ab.
